For twelve molecules, IC50 results are on record in US20220306695A1, “COMPSTATIN ANALOGUES AND THEIR MEDICAL USES” (priority 2019, published 2022).

Where two headings read alike, the source gives them in different places. Starred links: 1 amine or outer side, 2 acyl side, 3 side chain; linkers in the order of their positions; H or OH if unused. Positions of bridges follow the written chain, without caps; N, C: chain ends. Non-standard residues stand in square brackets, D forms with d. Residues, ends and D or L forms follow the SMILES beside them. Groups on a side chain read outwards from the residue. *: point of attachment. Trp(1-Me) = Cn1cc(C[C@H](N)C(=O)O)c2ccccc21; Abu(4-yl) = O=C([C@H](CC[*:3])N[*:1])[*:2]; C18 diacid = O=C(O)CCCCCCCCCCCCCCCCC(=O)*; γGlu = O=C(O)[C@H](CCC(=O)[*:2])N[*:1]; AEEA = NCCOCCOCC(=O)O; Sar = CNCC(=O)O Some results are limits rather than exact numbers.

For this assay, the system named is classical complement pathway. As to the kind of experiment: In vitro haemolysis assay (inhibition of classical complement pathway). In kind it is cell-based, human. A digest of the protocol:
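Serially diluted compound (9 points) was preincubated 15 min at room temperature with diluted human serum, titrated per batch to give 70-90% maximal haemolysis, in Tris/casein buffer pH 7.4 with Mg2+/Ca2+. Antibody-sensitized sheep erythrocytes were then added for 30 min at 37° C, and the reaction was stopped with EDTA. Haemolysis was read at A405, with IC50 from 4PL fit.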

Setting [1] is: Table 3, human serum, sensitized sheep red blood cells, read-out: IC50[nM], in vitro analysis of inhibition of hemolysis.
Where [2] appears, read: Table 4, valine 3 versus isoleucine 3 pairs, read-out: CP hemolysis IC50.

On to `CC[C@H](C)[C@@H]1NC(=O)[C@@H](NC(=O)[C@H](Cc2ccc(O)cc2)NC(=O)[C@H](CCC(=O)O)NC(=O)[C@H](CO)NC(C)=O)CSSC[C@@H](C(=O)N(C)CC(=O)N[C@@H](CCC(=O)O)C(=O)NCC(=O)N[C@@H](CCC(=O)O)C(=O)NCCOCCOCC(=O)NCCOCCOCC(=O)N[C@@H](CCCCNC(=O)CC[C@H](NC(=O)CNC(=O)CC[C@H](NC(=O)CCCCCCCCCCCCCCCCC(=O)O)C(=O)O)C(=O)O)C(N)=O)NC(=O)[C@H](CCCNC(=N)N)NC(=O)[C@H](Cc2c[nH]cn2)NC(=O)[C@H](CCC(=O)O)NC(=O)CNC(=O)[C@H](Cc2c[nH]c3ccccc23)NC(=O)[C@H](CCC(=O)O)NC(=O)[C@H](CCC(N)=O)NC(=O)[C@H](Cc2cn(C)c3ccccc23)NC1=O` [Compound 125] (Ac-SEYCI[Trp(1-Me)]QEWGEHRC[Sar]EGE[AEEA][AEEA]K([γGlu-Gly-γGlu-C18 diacid])-NH2; disulfide 4-14), for which the IC50 under setting [1] was under 500 nM.

Take `CC[C@H](C)[C@@H]1NC(=O)[C@@H](NC(=O)[C@H](Cc2ccccc2)NC(=O)[C@H](CCC(=O)O)NC(=O)[C@H](CO)NC(C)=O)CSCC[C@@H](C(=O)N[C@H](C(=O)N[C@@H](CCC(=O)O)C(=O)NCC(=O)N[C@@H](CCC(=O)O)C(=O)NCCOCCOCC(=O)N[C@@H](CCC(=O)O)C(=O)N[C@@H](CO)C(=O)N[C@@H](CCCCNC(=O)CC[C@H](NC(=O)CCCCCCCCCCCCCCCCC(=O)O)C(=O)O)C(=O)O)[C@@H](C)O)NC(=O)[C@H](CCCNC(=N)N)NC(=O)[C@H](Cc2c[nH]cn2)NC(=O)[C@H](CCC(=O)O)NC(=O)CNC(=O)[C@H](Cc2c[nH]c3ccccc23)NC(=O)[C@H](CC(=O)O)NC(=O)[C@H](CCC(N)=O)NC(=O)[C@H](Cc2cn(C)c3ccccc23)NC1=O` [Compound 163, Ac-SEFA(1)I[1-Me-Trp]QDWGEHRhC(1)TEGE[Peg3]ES-K([17-carboxy-heptadecanoyl][γGlu])-OH] (Ac-SEFCI[Trp(1-Me)]QDWGEHR[Abu(4-yl)]TEGE[AEEA]ESK([γGlu-C18 diacid])-OH; thioether 4-14): the IC50 under setting [1] is under 100 nM. The same measure, in the same setting: for `CC[C@H](C)[C@@H]1NC(=O)[C@@H](NC(=O)[C@H](Cc2ccc(O)cc2)NC(=O)[C@H](C)NC(=O)[C@H](CO)NC(=O)CNC(=O)[C@H](CCC(=O)O)NC(C)=O)CSSC[C@@H](C(=O)N(C)CC(=O)N[C@@H](CCC(=O)O)C(=O)NCC(=O)N[C@@H](CCCCN)C(=O)N[C@@H](CCCCNC(=O)CC[C@H](NC(=O)CNC(=O)CC[C@H](NC(=O)CCCCCCCCCCCCCCCCC(=O)O)C(=O)O)C(=O)O)C(N)=O)NC(=O)[C@H](CCCNC(=N)N)NC(=O)[C@H](Cc2c[nH]cn2)NC(=O)[C@H](CCC(=O)O)NC(=O)CNC(=O)[C@H](Cc2c[nH]c3ccccc23)NC(=O)[C@H](CC(=O)O)NC(=O)[C@H](CCC(N)=O)NC(=O)[C@H](Cc2cn(C)c3ccccc23)NC1=O` [Compound 110] (Ac-EGSAYCI[Trp(1-Me)]QDWGEHRC[Sar]EGKK([γGlu-Gly-γGlu-C18 diacid])-NH2; disulfide 6-16) the value was under 250 nM; for `CC[C@H](C)[C@@H]1NC(=O)[C@@H](NC(=O)[C@H](Cc2ccccc2)NC(=O)[C@H](C)NC(=O)[C@H](CO)NC(=O)CNC(=O)[C@H](CCC(=O)O)NC(C)=O)CSSC[C@@H](C(=O)N[C@@H](CCC(=O)O)C(=O)NCC(=O)N[C@@H](CCC(=O)O)C(N)=O)NC(=O)[C@H](CCCNC(=N)N)NC(=O)[C@H](Cc2c[nH]cn2)NC(=O)[C@H](CCC(=O)O)NC(=O)CNC(=O)[C@H](Cc2c[nH]c3ccccc23)NC(=O)[C@H](CC(=O)O)NC(=O)[C@H](CCC(N)=O)NC(=O)[C@H](Cc2cn(C)c3ccccc23)NC1=O` [Compound 58] (Ac-EGSAFCI[Trp(1-Me)]QDWGEHRCEGE-NH2; disulfide 6-16), under 100 nM; for `CC[C@H](C)[C@@H]1NC(=O)[C@@H](NC(=O)[C@H](Cc2ccc(O)cc2)NC(=O)[C@H](CCC(=O)O)NC(=O)[C@H](CO)NC(C)=O)CSSC[C@@H](C(=O)N(C)CC(=O)N[C@@H](CCC(=O)O)C(=O)NCC(=O)N[C@@H](C)C(=O)N[C@@H](CCCCNC(=O)CC[C@H](NC(=O)CNC(=O)CC[C@H](NC(=O)CCCCCCCCCCCCCCCCC(=O)O)C(=O)O)C(=O)O)C(N)=O)NC(=O)[C@H](CCCNC(=N)N)NC(=O)[C@H](Cc2c[nH]cn2)NC(=O)[C@H](CCC(=O)O)NC(=O)CNC(=O)[C@H](Cc2c[nH]c3ccccc23)NC(=O)[C@H](CC(=O)O)NC(=O)[C@H](CCC(N)=O)NC(=O)[C@H](Cc2cn(C)c3ccccc23)NC1=O` [Compound 112] (Ac-SEYCI[Trp(1-Me)]QDWGEHRC[Sar]EGAK([γGlu-Gly-γGlu-C18 diacid])-NH2; disulfide 4-14), under 500 nM. With `CC[C@H](C)[C@H](NC(C)=O)C(=O)N[C@H]1CSSC[C@@H](C(=O)N[C@H](C(N)=O)[C@@H](C)O)NC(=O)[C@H](CCCNC(=N)N)NC(=O)[C@H](Cc2c[nH]cn2)NC(=O)[C@H](Cc2c[nH]cn2)NC(=O)CNC(=O)[C@H](Cc2c[nH]c3ccccc23)NC(=O)[C@H](CC(=O)O)NC(=O)[C@H](CCC(N)=O)NC(=O)[C@H](C(C)C)NC(=O)[C@H](C(C)C)NC1=O` [Ac-compstatin, reference compound], the IC50 (Table 3, cells that print μM, read-out: IC50, in vitro analysis of inhibition of hemolysis) is over 5000 nM.

`CC[C@H](C)[C@H](NC(C)=O)C(=O)N[C@H]1CSSC[C@@H](C(=O)N[C@H](C(N)=O)[C@@H](C)O)NC(=O)[C@H](CO)NC(=O)[C@H](Cc2c[nH]cn2)NC(=O)[C@H](CCC(=O)O)NC(=O)CNC(=O)[C@H](Cc2c[nH]c3ccccc23)NC(=O)[C@H](CC(=O)O)NC(=O)[C@H](CCC(N)=O)NC(=O)[C@H](Cc2c[nH]c3ccccc23)NC(=O)[C@H]([C@@H](C)CC)NC1=O` [Compound 20] (Ac-ICIWQDWGEHSCT-NH2; disulfide 2-12): the IC50 is under 100 nM under setting [1] and 59 nM under setting [2].

Consider `CC[C@H](C)[C@@H]1NC(=O)[C@@H](NC(=O)[C@H](Cc2ccccc2)NC(=O)[C@H](CCC(=O)O)NC(=O)[C@H](CO)NC(C)=O)CSSC[C@@H](C(=O)N(C)CC(=O)N[C@@H](CCC(=O)O)C(=O)NCC(=O)N[C@@H](CCC(=O)O)C(=O)NCC(=O)NCC(=O)NCC(=O)N[C@@H](CCCCNC(=O)CC[C@H](NC(=O)CNC(=O)CC[C@H](NC(=O)CCCCCCCCCCCCCCCCC(=O)O)C(=O)O)C(=O)O)C(N)=O)NC(=O)[C@H](CCCNC(=N)N)NC(=O)[C@H](Cc2c[nH]cn2)NC(=O)[C@H](CCC(=O)O)NC(=O)CNC(=O)[C@H](Cc2c[nH]c3ccccc23)NC(=O)[C@H](CC(=O)O)NC(=O)[C@H](CCC(N)=O)NC(=O)[C@H](Cc2cn(C)c3ccccc23)NC1=O` [Compound 129] (Ac-SEFCI[Trp(1-Me)]QDWGEHRC[Sar]EGEGGGK([γGlu-Gly-γGlu-C18 diacid])-NH2; disulfide 4-14), for which the concentration for half-maximal inhibition (IC50) under setting [1] is under 100 nM.

As to `CC[C@H](C)[C@H](NC(C)=O)C(=O)N[C@H]1CSSC[C@@H](C(=O)N[C@H](C(N)=O)[C@@H](C)O)NC(=O)[C@H](CCCNC(=N)N)NC(=O)[C@H](Cc2c[nH]cn2)NC(=O)[C@H](CO)NC(=O)CNC(=O)[C@H](Cc2c[nH]c3ccccc23)NC(=O)[C@H](CC(=O)O)NC(=O)[C@H](CCC(N)=O)NC(=O)[C@H](Cc2c[nH]c3ccccc23)NC(=O)[C@H](C(C)C)NC1=O` [B, reference compound] (Ac-ICVWQDWGSHRCT-NH2; disulfide 2-12), the IC50 under setting [2] was 360 nM. Take `CC[C@H](C)[C@@H]1NC(=O)[C@@H](NC(=O)[C@H](Cc2ccccc2)NC(=O)[C@H](CCC(=O)O)NC(=O)[C@H](CO)NC(C)=O)CCSC[C@@H](C(=O)N(C)CC(=O)N[C@@H](CCC(=O)O)C(=O)NCC(=O)N[C@@H](CCC(=O)O)C(=O)NCCOCCOCC(=O)NCCOCCOCC(=O)N[C@@H](CCCCNC(=O)CC[C@H](NC(=O)CNC(=O)CC[C@H](NC(=O)CCCCCCCCCCCCCCCCC(=O)O)C(=O)O)C(=O)O)C(N)=O)NC(=O)[C@H](CCCNC(=N)N)NC(=O)[C@H](Cc2c[nH]cn2)NC(=O)[C@H](CCC(=O)O)NC(=O)CNC(=O)[C@H](Cc2c[nH]c3ccccc23)NC(=O)[C@H](CCC(=O)O)NC(=O)[C@H](CCC(N)=O)NC(=O)[C@H](Cc2cn(C)c3ccccc23)NC1=O` [Compound 167] (Ac-SEF[Abu(4-yl)]I[Trp(1-Me)]QEWGEHRC[Sar]EGE[AEEA][AEEA]K([γGlu-Gly-γGlu-C18 diacid])-NH2; thioether 4-14): under setting [1], the IC50 is under 500 nM. Take `CC[C@H](C)[C@@H]1NC(=O)[C@@H](NC(=O)[C@H](Cc2ccccc2)NC(C)=O)CSSC[C@@H](C(=O)N[C@H](C(N)=O)[C@@H](C)O)NC(=O)[C@H](CCCNC(=N)N)NC(=O)[C@H](Cc2c[nH]cn2)NC(=O)[C@H](CCC(=O)O)NC(=O)CNC(=O)[C@H](Cc2c[nH]c3ccccc23)NC(=O)[C@H](CC(=O)O)NC(=O)[C@H](CCC(N)=O)NC(=O)[C@H](Cc2c[nH]c3ccccc23)NC1=O` [Compound 23] (Ac-FCIWQDWGEHRCT-NH2; disulfide 2-12): the IC50 under setting [1] was under 100 nM.

`CC[C@H](C)[C@@H]1NC(=O)[C@@H](NC(=O)[C@H](Cc2ccccc2)NC(=O)[C@H](CCC(=O)O)NC(=O)[C@H](CO)NC(C)=O)CSCC[C@@H](C(=O)N(C)CC(=O)N[C@@H](CCC(=O)O)C(=O)NCC(=O)N[C@@H](C)C(=O)N[C@@H](CCCCNC(=O)COCCOCCNC(=O)CC[C@H](NC(=O)COCCOCCNC(=O)CNC(=O)CC[C@H](NC(=O)CCCCCCCCCCCCCCCCC(=O)O)C(=O)O)C(=O)O)C(N)=O)NC(=O)[C@H](CCCNC(=N)N)NC(=O)[C@H](Cc2c[nH]cn2)NC(=O)[C@H](CCC(=O)O)NC(=O)CNC(=O)[C@H](Cc2c[nH]c3ccccc23)NC(=O)[C@H](CC(=O)O)NC(=O)[C@H](CCC(N)=O)NC(=O)[C@H](Cc2cn(C)c3ccccc23)NC1=O` [Compound 154, Ac-SEFA(1)I[1-Me-Trp]QDWGEHRhC(1)[Sar]EGA-K([17-carboxy-heptadecanoyl][γGlu]G[Peg3][γGlu][Peg3])-NH2] (Ac-SEFCI[Trp(1-Me)]QDWGEHR[Abu(4-yl)][Sar]EGAK([AEEA-γGlu-AEEA-Gly-γGlu-C18 diacid])-NH2; thioether 4-14): the IC50 under setting [1] is under 100 nM.

A word on the IC50: it is the concentration that gives 50% inhibition.
